Experimental data from US8048877B2, “Guanidine derivatives and their medical use” (Neurosearch A/S, priority 2006, dated 2011).
Where a name gives a salt, the structure may show the parent alone.

How the values were obtained:
[1] = molecular target: T1, hSK3 channels (Homo sapiens, UniProt Q9UGI6); experiment: whole-cell patch-clamp recording of SK3 current in HEK293 cells expressing hSK3 channels; type: cell-based; settings: current at −75 mV, free Ca2+ 0.3-0.4 μM, room temperature, read-out: Kd value (concentration required for decreasing the baseline current to 50% of the initial current)
T1 construct: expressed in transfected cells; host or cells: HEK293
Procedure: The ionic current through small-conductance Ca^2+-activated K^+ channels (SK channels, subtype 3) was recorded using the whole-cell configuration of the patch-clamp technique.
HEK293 tissue culture cells expressing hSK3 channels were grown in DMEM (Dulbecco's Modified Eagle Medium) supplemented with 10% FCS (foetal calf serum) at 37° C. in 5% CO2. At 60-80% confluency, cells were harvested by trypsin treatment and seeded on cover slips.
Cells plated on coverslips were placed in a 15 μl perfusion chamber (flowrate ˜1 ml/min) mounted on an inverted microscope placed on a vibration-free table in a grounded Faraday cage. The experiments were performed at room temperature (20-22° C.). […] Data were stored directly on the hard-disk and analysed by IGOR software (Wavemetrics, Lake Oswega, Oreg., USA).
The whole-cell configuration of the patch-clamp technique was applied. […] Cell capacitance was electronically compensated and the resistance between the pipette and the cell interior (the series resistance, Rs) was measured and compensated for. […]
The intracellular (pipette) solution contained: 154 mM KCl, 10 mM HEPES, 10 mM EGTA. Concentrations of CaCl2 and MgCl2 needed to obtain the desired free concentrations of Ca^2+ (0.3-0.4 μM, Mg^2+ always 1 mM) were calculated by EqCal software (Cambridge, UK) and added. […]

Row | Compound | melting point [°C] | Kd [1] [nM]
1 | N=C1N(Cc2cc(F)c(F)cc2Br)Cc2ccccc2N1Cc1cc(F)c(F)cc1Br (as salt: salt) [Compound 9, 1,3-Bis-(2-bromo-4,5-difluorobenzyl)-3,4-dihydro-1H-quinazolin-2-ylideneamine] | 220 to 224 | 
2 | N=C1N(Cc2ccc(F)c(F)c2)Cc2ccccc2N1Cc1ccc(F)c(F)c1 (as salt: salt) [Compound 4, 1,3-Bis-(3,4-difluorobenzyl)-3,4-dihydro-1H-quinazolin-2-ylideneamine] | 215 to 218 | 
3 | N=C1N(Cc2ccc(F)c(F)c2)[C@@H]2CCCC[C@H]2N1Cc1ccc(F)c(F)c1 (racemic) (as salt: salt) [Compound 5, (±)-trans-1,3-Bis-(3,4-difluoro-benzyl)octahydro-benzoimidazol-2-ylideneamine] | 238 to 240 | 
4 | N=C1N(Cc2ccc(F)c(F)c2)CCCN1Cc1ccc(F)c(F)c1 [Compound 7, 1,3-Bis-(3,4-difluorobenzyl)tetrahydropyrimidin-2-ylideneamine] |  | < 1000
5 | COc1ccc(OC(F)(F)F)cc1CN1CCN(Cc2cc(OC(F)(F)F)ccc2OC)C1=N [Compound 15, 1,3-Bis-(2-methoxy-5-trifluoromethoxybenzyl)imidazolidin-2-ylideneamine] |  | < 1000
